# Assay results: patent publication US20150104392A1, “COMPOSITIONS, BIOMARKERS AND THEIR USE IN THE TREATMENT OF CANCER” (Aptose Biosciences Inc., priority 2013, published 2015)
# What was measured:
# Kasumi-1 xenograft = assay: Kasumi-1 AML xenograft model; assay type: in vivo; conditions: 30 mg/kg (15 mg/kg twice per day) i.v., two consecutive days per week, four weeks
# Experimental: The anti-tumor activity of LOR-253HCl was evaluated in another in vivo animal model of human AML. The human AML cell line Kasumi-1 was implanted subcutaneously into athymic nude mice. Some tumor-bearing mice were treated with LOR-253HCl at 30 mg/kg (15 mg/kg twice per day) for two consecutive days per week for four weeks (the “LOR-253 treatment group”). LOR-253 was administered by intravenous (i.v.) bolus injection as the hydrochloric salt form (LOR-253-HCl) formulated in 20% Polyethylene Glycol 400, 10% Propylene Glycol, and 10% Solutol HS in 60% water.
# The major endpoint was to observe for tumor growth inhibition after treatment with LOR-253HCl and compare the anti-tumor effects of different dosing schedules. Tumor sizes were measured three times per week from day 10 after the tumor cell inoculation. Tumors were measured in three dimensions using calipers and the volume was expressed in millimeters cubed using the formula: V=0.5 a×b×c, where a, b, and c are the length, width, and height of the tumor, respectively. Mean tumor volumes+/−standard error (SE) were calculated from each measurement and then plotted in a standard graph to compare the anti-tumor efficacy of drug treatment to that of control (FIG. 20). Toxicity was assessed by clinical observations and by measurement of mouse body weight in grams twice per week over the course of the study. Mean body weights were calculated from each measurement and then plotted to compare body weight changes in the drug treatment group to that of control (FIG. 21).
# [1] = Pharmacokinetics, serum level after i.v. bolus; assay type: in vivo; conditions: CD-1 nude mice; i.v. bolus 1, 5 and 15 mg/kg
# Experimental: To study the pharmacokinetic (PK) […], CD-1 nude mice were treated by i.v. bolus injections of LOR-253HCl at 1, 5, and 15 mg/kg. The serum level of LOR-253 was measured.
# THP-1 xenograft = assay: THP-1 AML xenograft model; assay type: in vivo, mice; conditions: Group 2: single agent, i.v. Days 1, 2, 8, 9, 15, 16; IP Days 22-25, 29, 30
# Experimental: The anti-tumor activity of LOR-253HCl, as a single agent and in combination with azacitidine, was evaluated in yet another in vivo animal model of human AML. Xenograft model mice for AML cell line THP-1 was generated with the same method as in Examples 9 and 10, and were treated with LOR-253HCl alone or in combination with azacitidine, with azacitidine alone, or with a negative control vehicle, and tumor sizes were measured as described in Examples 9 and 10. The detailed treatment conditions are shown as follows, and the results are shown in FIG. 26. • Group 1 Control: received i.v. treatments with LOR-253 control vehicle (CV) on Days 1, 2, 8, 9, 15 &16; received subcutaneous (SC) treatments with Azacitidine control vehicle on Days 1, 4, 8, 11, 15, 18, 22, 25, 29 &32; and received intraperitoneal (IP) treatments with LOR-253-CV on Days 22, 23, 24, 25, 29&30. • Group-2-LOR-253: received i.v. treatments on Days 1, 2, 8, 9, 15 &16; received IP treatments on Days 22, 23, 24, 25, 29&30 • Group-3-Azacitidine: received SC treatments on Days 1, 4, 8, 11, 15, 18, 22, 25, 29 &32. • Group-4-Combination: received i.v. treatments with LOR-253 on Days 1, 2, 8, 9, 15 &16; received IP treatments with LOR-253 on Days 22, 23, 24 &25; and received SC-treatment with Azacitidine on Days 1, 4, 8, 11, 15, 18, 22 &25
# [2] = test system: advanced or metastatic solid tumours; assay: Open-label phase 1 study in patients with advanced or metastatic solid tumours; assay type: in vivo, human
# Experimental: Phase I: This was an open-label, phase 1 study to determine the maximum tolerated dose (MTD) or appropriate target dose if MTD not reached to identify the recommended phase 2 dose of LOR-253HCl in patients with advanced or metastatic solid tumours. In the first set of doses, LOR-253HCl was given in ascending doses until the maximum administered dose or appropriate target dose is reached. In the other set of doses, LOR-253HCl was given in ascending doses starting from 20 mg/m^2 until the maximum administered dose or appropriate target dose is reached. Patient as treated on LOR-253HCl for 2 cycles for the evaluation. • Other Name: No other names are used. • Study Type: Interventional • Study Design: Endpoint Classification: Safety Study • Intervention Model: Single Group Assignment • Masking: Open Label • Primary Purpose: Treatment • Official Title: Open-Label, Phase 1 Study of LOR-253HCl in Patients With Advanced or Metastatic Solid Tumours
# • To determine the maximum tolerated dose (MTD) or appropriate target dose if MTD not reached to identify the recommended phase 2 dose of LOR-253HCl in patients with advanced or metastatic solid tumours. [Time Frame: 8 weeks]
# • To characterize the safety profile of LOR-253HCl when administered to patients with advanced or metastatic solid tumours. [Time Frame: 8 weeks]
# • 1. Male or female 18 years of age or older. • 2. Histologically confirmed diagnosis of solid tumor for which no effective therapy is available or that is unresponsive to conventional therapy. • 3. Meet laboratory parameter requirements at study entry.
# • 1. Chemotherapy, radiotherapy, biologic therapy, immunotherapy or any other investigational drugs within 21 days of beginning study treatment with LOR-253HCl. • 2. A hematologic malignancy. • 3. A history of brain or other central nervous system metastases. • 4. Have a presence of a significant infection. • 5. Clinically significant autoimmune disease. • 6. Uncontrolled intercurrent illness. • 7. With iron or copper overload syndromes. • 8. Pregnancy or breast feeding.
# KG-1 xenograft = assay: KG-1 AML xenograft model; assay type: in vivo, mice; conditions: 15 mg/kg iv, bid, 2T/wk; single agent
# Experimental: The anti-tumor activity of LOR-253HCl was evaluated in yet another in vivo animal model of human AML. Xenograft model mice for AML cell line KG-1 was generated with the same method as in Examples 9 and 10, and were treated with LOR-253HCl or control according to the following regime.
# LOR-253-15 mg/kg-iv, bid, 2T/wk-Day 1
# HL-60 xenograft = assay: HL-60 AML xenograft model; assay type: in vivo, athymic nude mice; conditions: 3 cycles
# Experimental: The human AML cell line HL-60 was implanted subcutaneously into athymic nude mice. Tumor-bearing mice were treated with LOR-253HCl alone or in combination with azacitidine, with azacitidine alone, or with a negative control vehicle. The detailed treatment conditions are as follows. • Group 1: Negative control group. LOR-253HCl control vehicle, 2×/day, 3 cycles of 2 consecutive days, 5 days between cycles, i.v., plus 1% D-mannitol every four days by s.c. injection • Group 2: Azacitidine (in 1% D-mannitol) at 10 mg/kg 1× on days 1, 4, 8, 11, 15 and 18 by subcutaneous (s.c.) injection • Group 3: LOR-253HCl at 15 mg/kg bid for 3 cycles, each cycle is 2 consecutive days of dosing per week with 5 days of non-dosing, i.v., n=9 (2T-5B) • Group 4: LOR-253HCl at 15 mg/kg 2×/day (bid) for 3 cycles, each cycle is 1 day of dosing per week with 6 days of non-dosing, i.v., n=9 (1T-6B) • Group 5: Combination of LOR-253 (2T-5B) and azacitidine. LOR-253HCl at 15 mg/kg bid for 3 cycles, each cycle is 2 consecutive days of dosing per week with 5 days of non-dosing, i.v., n=9 (2T-5B) plus azacitidine at 10 mg/kg 1× every four days by s.c. injection • Group 6: Combination of LOR-253 (1T-6B) and azacitidine. […]
# Tumor sizes were measured three times per week.
smiles,measurement,setting,value
Cc1[nH]c2ccc(F)cc2c1-c1nc2c3cccnc3c3ncccc3c2[nH]1 [LOR-253HCl],body weight,Kasumi-1 xenograft,did not show body weight loss
same,overt signs of toxicity,Kasumi-1 xenograft,did not show other overt signs of toxicity
same,tumor growth inhibition vs vehicle control,Kasumi-1 xenograft; p=0.028 Student's t-test,statistically significantly increased inhibitory effect
same,serum level of LOR-253,[1],dose related increase
same,tumor growth inhibition,THP-1 xenograft,inhibited growth of THP-1 tumors to about the same extent as or slightly more than azacitidine alone
same,Most common AE and SAE,"[2]; N=27 patients, 7 dose levels",Fatigue and 1 case of reversible hypophosphatemia
same,Safety profile,"[2]; N=27 patients, 7 dose levels",Excellent Safety Profile
same,tumor response in individual patient (FIG. 12),"[2]; patient with NSCLC (poorly differentiated adenocarcinoma), extensive metastases, refractory",Tumor shrinkage
same,RECIST partial response,[2]; patients with advanced solid tumors,No RECIST PR
same,"Stable Disease, evaluable patients","[2]; patients with advanced solid tumors, dose-escalating, 7 dose levels",41%
same,tumor growth inhibition,KG-1 xenograft,significant tumor growth inhibition
same,tumor growth inhibition,"HL-60 xenograft; Group 3: 15 mg/kg bid i.v., two consecutive days per week (2T-5B)",inhibited growth of HL-60 tumors to approximately the same extent as or slightly more than azacitidine alone
same,tumor growth inhibition,"HL-60 xenograft; Group 4: 15 mg/kg bid i.v., one day per week (1T-6B)",inhibited growth of HL-60 tumors to approximately the same extent as or slightly more than azacitidine alone
